How the values were obtained:
[1] = test system: cold allodynia in rats with chronic constriction injury (CCI) of the sciatic nerve; assay: Acetone test (cold allodynia) in rats with chronic constriction injury of the sciatic nerve (Bennett and Xie model); format: in vivo, Male Wistar rats; conditions: for anti-allodynic effect: oral, temporal course 0-180 min; for dose dependence of anti-allodynic effects: given orally, alone; for Anti-allodynic efficacy: Maximal efficacy (AUC: X ± SE): most efficacious dose po: Pregabalin 31.6 mg/Kg, S-ketorolac 1.0 mg/Kg, AUC of 180-min temporal course, maximum possible 300 au, n=6; for maximal anti-allodynic effect (AUC): pregabalin 31.6 mg/Kg po, S-Ket 1.0 mg/Kg po, 180-min temporal course; for Anti-allodynic efficacy: Relative efficacy: relative to pregabalin, Pregabalin 31.6 mg/Kg po, S-ketorolac 1.0 mg/Kg po
Experimental: (§1) Male Wistar rats were used in the experiments. […] The animals were kept in polycarbonate cages under controlled temperature and light conditions, with 12-hour light/darkness cycles and free access to food and water. All experiments were performed during the light phase of the light/darkness cycles. The animals were used and handled according to the international guidelines on Ethical Standards for Investigations of Experimental Pain established by the Committee for Research and Ethical Issues of the International Association for the Study of Pain. The number of experiment animals was kept to a minimum (n=6), and at the end of the experimental assessments the animals were sacrificed using carbon dioxide.
(§2) Immediately after the rats were anesthetized, their right hind limb sciatic nerves were dissected through an incision, in which the biceps femoris muscle was dissected for locating the most proximal site to the trifurcation of the sciatic nerve, and to apply four loose ligations with silk thread.
(§3) Once the surgery was finished, the muscle was sutured with absorbable thread, and the skin was sutured with silk thread. Sham surgery in rats was performed likewise, although without ligating the sciatic nerve. All procedures were performed under aseptic conditions. The degree of hyperalgesia and allodynia in rats subjected to sciatic nerve surgery was determined using the Von Frey test (mechanical hyperalgesia) and the acetone test (cold allodynia).
The acetone test (cold allodynia) was performed and assessed as follows: Once the Von Frey test was finished, rats were left to rest over the metallic mesh, and after a 5-10 minute period, 0.1 mL of acetone was applied on the sole callosities of the right hindlimb with a syringe with a flexible plastic point from under the mesh. Then, a chronometer recorded the time in seconds in which the animals kept the hindlimb away from the mesh during the first 60 seconds after being exposed to acetone. The response time of the right hindlimb was measured. Three measurements were made (1 measurement every 2 minutes).
(§4) In a first stage, the experimental design of the groups and the experiments were performed as follows: • a) Several groups of 6 animals with neuropathic pain (sciatic nerve ligation) were formed.
All combinations to be assessed were designed. It was decided to evaluate combinations with 24 different proportions, to have the fullest possible notion of the interaction of these 2 analgesics, and for obtaining and determining the optimal combinations in terms of efficacy and anti-allodynic potentiation.

[2] = test system: mechanical hyperalgesia in rats with chronic constriction injury (CCI) of the sciatic nerve; assay: Von Frey test (mechanical hyperalgesia, 15-gram filament) in rats with chronic constriction injury of the sciatic nerve; format: in vivo, Male Wistar rats; conditions: for dose dependence of anti-hyperalgesic effects: given orally, alone; for Antihyperalgesic efficacy: Maximal efficacy (AUC: X ± SE): most efficacious dose po: Pregabalin 31.6 mg/Kg, S-ketorolac 3.16 mg/Kg, AUC of 180-min temporal course, n=6; for maximal antihyperalgesic effect (AUC): pregabalin 31.6 mg/Kg po, S-Ket 3.16 mg/Kg po; for Antihyperalgesic efficacy: Relative efficacy: relative to pregabalin, Pregabalin 31.6 mg/Kg po, S-ketorolac 3.16 mg/Kg po
Experimental: as §1, §2, §3
Von Frey test (mechanic hyperalgesia). Rats were placed over a metallic mesh in a clear acrylic box and remained in the box at least 10 minutes before the test, in order to allow the rats to adapt to the environment. The response was determined by means of a tactile stimulus on the sole callosities of the right hindlimb with the 15-gram Von Frey filament. Ten stimuli were applied (one stimulus approximately every 3 seconds), and the response percentage was obtained (% response=number of responses/10 ×100).
as §4
It was decided to base assessments on 6 doses of the pregabalin DRCs (0.0316, 0.1, 0.316, 1.0, 3.16 and 10 mg/Kg) and to combine them with 4 different S-ketorolac doses (0.0316, 0.10, 0.316 and 1.0 mg/Kg p.o.).

[3] = pregabalin 10.0 mg/Kg po alone, reached 3 h after administration

Row | SMILES | anti-allodynic effect ([1]; 0.0316 mg/Kg dose) | anti-allodynic effect ([1]; 31.6 mg/Kg dose) | dose dependence of anti-allodynic effects [1] | Anti-allodynic efficacy: Maximal efficacy (AUC: X ± SE) [1] | anti-allodynic Emax [1, 3] [%] | maximal anti-allodynic effect (AUC) [1] [ua] | Anti-allodynic efficacy: Relative efficacy [1] | dose dependence of anti-hyperalgesic effects [2] | more anti-hyperalgesia than S-ketorolac ([2]; most effective oral doses given alone) [%] | Antihyperalgesic efficacy: Maximal efficacy (AUC: X ± SE) [2] | antihyperalgesic effect ([2]; pregabalin 0.316 mg/Kg po alone, over the assessment period) | antihyperalgesic Emax [2, 3] [%] | maximal antihyperalgesic effect (AUC) [2] [ua] | Antihyperalgesic efficacy: Relative efficacy [2] | anti-allodynic effect ([1]; 1.0 mg/Kg dose) | anti-allodynic Emax ([1]; S-ketorolac 0.316 mg/Kg po alone, reached 30 minutes after administration) [%] | anti-allodynic efficacy as percent of that induced by oral pregabalin ([1]; S-ketorolac 1.0 mg/Kg po vs pregabalin 31.6 mg/Kg po) [%] | antihyperalgesic effect ([2]; S-ketorolac 1.0 mg/Kg po alone) | antihyperalgesic Emax ([2]; S-ketorolac 1.0 mg/Kg po alone, reached 60 minutes after administration) [%] | antihyperalgesic efficacy as percent of that delivered by pregabalin ([2]; S-ketorolac 3.16 mg/Kg po vs pregabalin 31.6 mg/Kg po) [%]
1 | CC(C)C[C@H](CN)CC(=O)O [Pregabalin, (3S)-3-(aminomethyl)-5-methylhexanoic acid] | almost no anti-allodynic effect | significant anti-allodynic effect | dose-dependent anti-allodynic effects | 241.6 ± 9.5 | 83.4±3.7 | 241.6±9.5 | 1.0 | dose-dependent anti-hyperalgesic effects | 49 | 220.4 ± 12.3 | practically no antihyperalgesic effects | 78.3±5.4 | 220.4±12.3 | 1.0 |  |  |  |  |  | 
2 | O=C(c1ccccc1)c1ccc2n1CCC2C(=O)O (centres unmarked) [S-ketorolac, 5-Benzoyl-2,3-dihydro-1H-pyrrolizine-1-carboxylic acid] | almost no anti-allodynic effect |  | dose-dependent anti-allodynic effects | 111.2 ± 20.3 |  | 111.2±20.3 | 0.46 | dose-dependent anti-hyperalgesic effects |  | 112.5 ± 3.5 |  |  | 112.5±3.5 | 0.51 | significant anti-allodynic effect | 44.0±7.7 | 46 | little antihyperalgesic effect | 40.0±5.8 | 51

Source: patent US20220273596A1, “SYNERGISTIC COMBINATION OF S-KETOROLAC AND PREGABALIN IN A PHARMACEUTICAL COMPOSITION FOR THE TREATMENT OF NEUROPATHIC PAIN” (priority 2019, published 2022)
